Here are results for 7 molecules from patent US20240158445A1, “CYCLIC CELL-PENETRATING PEPTIDES WITH THREE OR MORE HYDROPHOBIC RESIDUES” (Ohio State Innovation Foundation, priority 2021, published 2024).

Structures are written as SMILES. Where a SMILES comes first, the peptide text is derived from it. Side-chain parts run from the residue outwards. [ ]: non-standard residue; d: D form. The star is where a group is joined. X2 = NC(=O)[C@H](CCCCNC(=O)c1ccc(-c2c3ccc4cc(O)ccc4c3oc3c2ccc2cc(=O)ccc23)c(C(=O)O)c1)N*; Lys(5-FITC)NH2 = NC(=O)[C@H](CCCCNC(=S)Nc1ccc2c(c1)C(=O)OC21c2ccc(O)cc2Oc2cc(O)ccc21)N*; X1 = CN(C)c1ccc2c(c1)Oc1cc(N(C)C)ccc1C21OC(=O)c2cc(C(=O)NCCCC[C@H](N*)C(N)=O)ccc21; 2Nal = N[C@@H](Cc1ccc2ccccc2c1)C(=O)O; Bta = N[C@@H](Cc1csc2ccccc12)C(=O)O; AEEA = NCCOCCOCC(=O)O

In one test the target is proteins in FBS. The test can be described thus: Fluorescence polarization analysis of CPP binding to FBS. Also noted: species or system bovine. As to conditions: 100 nM labeled peptide, FBS in DPBS, 1 h, FP; read-out: apparent KD to proteins in FBS. The protocol:
General Methods—Fluorescence Polarization (FP) Analysis of CPP Binding to FBS. Fluorescein-labeled peptide (100 nM) was incubated with serial dilutions of FBS (0-100 μM) in DPBS for 1 h. The solutions were transferred to a 384-black microplate (Greiner), and FP values were measured on a Tecan Infinite M1000 Pro plate reader, with excitation and emission wavelengths at 470 and 535 nm, respectively, for FITC, 530 and 580 nm for TMR, and 595 and 660 nm for NF. The titration curves were fitted using GraphPad Prism to the following equation: […]
where FP is the measured polarization, Amin is the minimum FP value, Amax is the maximum FP value, Qb is the quantum yield of the bound fluorophore, Qf is the quantum yield of the free fluorophore, L is the ligand concentration, KD is the dissociation constant, and x is the protein concentration. Data presented are the mean±SD of three independent experiments.
A general note: Polarisation of emitted light reports the rotation of a fluorescent probe.

The test system of a further test is HeLa cells. The test can be described thus: Live-cell confocal microscopy. It counts as cell-based, human. To be noted: 2 h, 1% FBS. The protocol:
General Methods—Confocal Microscopy. HeLa cells were seeded in a 35-mm glass-bottomed microwell dish with 4 compartments (Greiner) at a density of 5×10^4 cells/mL (300 μL in each compartment) and cultured overnight. Next day, the cells were gently washed with DPBS twice, and treated for 2 h with FITC- or TMR-labelled peptides (5 μM, 1 μM or 0.2 μM as indicated) in phenol-red free DMEM containing 1% […]. After removal of the medium, the cells were gently washed with DPBS twice and imaged on a Nikon A1R live-cell confocal laser scanning (ECLIPSE Ti-E automated, inverted) microscope equipped with a 100× oil objective (1.45 N.A.) and a heated (37° C.) chamber supplied with 5% CO2. For the red channel (TMR), the laser line with λEx 561 nm was set at 0.6% laser power (for 5 μM peptide treatment), 1.6% laser power (for 1 μM peptide treatment) or 10.8% laser power (for 0.2 μM peptide treatment). For the green channel (FITC), the laser line with λEx 487 nm was set at 0.6% laser power. The data were analyzed using NIS-Elements AR.

The subject of a further test is Keap1-Nrf2 interaction. As to the kind of experiment: Luciferase reporter assay in ARE reporter-HepG2 cells. In kind it is cell-based. As to conditions: up to 5 mM concentration. Here is the method:
General Methods—Luciferase Reporter Assay. ARE reporter-HepG2 cells (1000 cells per well) were seeded in 100 μL of assay medium (MEM, 0% FBS, and 1% penicillin-streptomycin sulfate) in an opaque 96-well plate and cultured overnight. […] After incubation, 100 μL of One-Step luciferase assay reagent was added to each well and after 15 min of shaking, the luminescence was measured using a Tecan Infinite M1000 Pro microplate reader. P values (<0.05) were estimated using Student's t test.
(A reporter such as luciferase makes a cellular process visible.)

Turning to `N=C(N)NCCC[C@@H]1NC(=O)[C@H](Cc2ccc3ccccc3c2)NC(=O)[C@@H](Cc2ccccc2)NC(=O)[C@H](Cc2ccccc2)NC(=O)[C@H](CCC(=O)NCCOCCOCC(=O)N[C@@H](CCCCNC(=O)c2ccc(-c3c4ccc5cc(O)ccc5c4oc4c3ccc3cc(=O)ccc34)c(C(=O)O)c2)C(N)=O)NC(=O)[C@@H](CCCNC(=N)N)NC(=O)[C@H](CCCNC(=N)N)NC(=O)[C@@H](CCCNC(=N)N)NC1=O` [CPP12, cycl(Phe-D-Phe-Nal-Arg-D-Arg-Arg-D-Arg-Gln)] (cyclo([2Nal]R[dR]R[dR]E([AEEA-X2])F[dF])), the Kd at proteins in FBS was found to be 1.3 ± 0.3 µM.
With `N=C(N)NCCC[C@@H]1NC(=O)[C@H](Cc2csc3ccccc23)NC(=O)[C@@H](Cc2ccccc2)NC(=O)[C@H](Cc2ccccc2)NC(=O)[C@H](CCC(=O)NCCOCCOCC(=O)N[C@@H](CCCCNC(=O)c2ccc(-c3c4ccc5cc(O)ccc5c4oc4c3ccc3cc(=O)ccc34)c(C(=O)O)c2)C(N)=O)NC(=O)[C@@H](CCCNC(=N)N)NC(=O)[C@H](CCCNC(=N)N)NC(=O)[C@@H](CCCNC(=N)N)NC1=O` [CPP12-2, Phe-phe-(Bta)-Arg-arg-Arg-arg-Gln] (cyclo([Bta]R[dR]R[dR]E([AEEA-X2])F[dF])), the Kd on proteins in FBS was determined as 1.2 ± 0.4 µM.
With `N=C(N)NCCC[C@@H]1NC(=O)[C@H](Cc2csc3ccccc23)NC(=O)[C@@H](Cc2ccccc2)NC(=O)[C@H](Cc2ccccc2)NC(=O)[C@H](CCC(=O)NCCOCCOCC(=O)N[C@@H](CCCCNC(=S)Nc2ccc3c(c2)C(=O)OC32c3ccc(O)cc3Oc3cc(O)ccc32)C(N)=O)NC(=O)[C@@H](CCCNC(=N)N)NC(=O)[C@H](CCCNC(=N)N)NC(=O)[C@@H](CCCNC(=N)N)NC1=O` [CPP12-2^FITC] (cyclo(F[dF][Bta]R[dR]R[dR]E([AEEA-Lys(5-FITC)NH2]))), the Kd at proteins in FBS turned out to be 30 ± 5 µM.
Regarding `CN(C)c1ccc2c(c1)Oc1cc(N(C)C)ccc1C21OC(=O)c2cc(C(=O)NCCCC[C@H](NC(=O)COCCOCCNC(=O)CC[C@@H]3NC(=O)[C@@H](CCCNC(=N)N)NC(=O)[C@H](CCCNC(=N)N)NC(=O)[C@@H](CCCNC(=N)N)NC(=O)[C@H](CCCNC(=N)N)NC(=O)[C@H](Cc4csc5ccccc45)NC(=O)[C@@H](Cc4ccccc4)NC(=O)[C@H](Cc4ccccc4)NC3=O)C(N)=O)ccc21` [CPP12-2^TMR] (cyclo([Bta]R[dR]R[dR]E([AEEA-X1])F[dF])), the “intracellular distribution of TMR fluorescence” value in the test with HeLa cells (0.2 and 1.0 μM) was “predominantly punctate fluorescence in the cytoplasmic region”. On proteins in FBS, the Kd turned out to be 68 ± 9 µM.
In the case of `N=C(N)NCCC[C@@H]1NC(=O)[C@H](Cc2ccc3ccccc3c2)NC(=O)[C@@H](Cc2ccccc2)NC(=O)[C@H](Cc2ccccc2)NC(=O)[C@H](CCC(=O)NCCOCCOCC(=O)N[C@@H](CCCCNC(=S)Nc2ccc3c(c2)C(=O)OC32c3ccc(O)cc3Oc3cc(O)ccc32)C(N)=O)NC(=O)[C@@H](CCCNC(=N)N)NC(=O)[C@H](CCCNC(=N)N)NC(=O)[C@@H](CCCNC(=N)N)NC1=O` [CPP12^FITC] (cyclo(F[dF][2Nal]R[dR]R[dR]E([AEEA-Lys(5-FITC)NH2]))), the Kd on proteins in FBS was 29 ± 3 µM.
For the molecule `CN(C)c1ccc2c(c1)Oc1cc(N(C)C)ccc1C21OC(=O)c2cc(C(=O)NCCCC[C@H](NC(=O)COCCOCCNC(=O)CC[C@@H]3NC(=O)[C@@H](CCCNC(=N)N)NC(=O)[C@H](CCCNC(=N)N)NC(=O)[C@@H](CCCNC(=N)N)NC(=O)[C@H](CCCNC(=N)N)NC(=O)[C@H](Cc4ccc5ccccc5c4)NC(=O)[C@@H](Cc4ccccc4)NC(=O)[C@H](Cc4ccccc4)NC3=O)C(N)=O)ccc21` [CPP12^TMR] (cyclo([2Nal]R[dR]R[dR]E([AEEA-X1])F[dF])), the “intracellular distribution of TMR fluorescence” value was “very similar intracellular distribution” in the test with HeLa cells (5 μM); “predominantly punctate fluorescence in the cytoplasmic region” in the test on HeLa cells (0.2 and 1.0 μM). In addition, the Kd at proteins in FBS turned out to be 27 ± 9 µM.
In the case of `CC(C)C[C@@H]1NC(=O)[C@H](Cc2ccccc2)NC(=O)[C@H](CCC(=O)O)NC(=O)CNC(=O)[C@H]([C@@H](C)O)NC(=O)[C@H](CCC(=O)O)NC(=O)[C@@H]2CCCN2C(=O)[C@H](CC(=O)O)NC(=O)[C@H](CC(C)C)NC(=O)[C@H](CCC(N)=O)NC(=O)CNC1=O` [Peptide P1], in the test with Keap1-Nrf2 interaction, the “increase in luciferase activity” value is “did not result in significant increase in luciferase activity”.
